≈ marks a conversion by molar mass, not a printed value.

The record followed here is patent US3939157A, “3-Benzyl-7-substituted acetamido-3-cephem-4-carboxylic acids and halogenated benzyl derivatives” (Beecham Group Limited, priority 1972, dated 1976).

Type in all cases: cell-based
One test has as its system Strep.pneumoniae CN33. Description: minimum inhibitory concentration (MIC) in agar, Strep.pneumoniae CN33. Conditions: Streptococcus pneumoniae. The method, then:
(§1) The minimum concentrations of this compound required to inhibit growth of five typical Gram-positive bacteria are tabulated below.
(§2) The minimum inhibitory concentrations (MIC) of the free acid (XIV) required to inhibit the growth of five typical Gram-positive bacteria are tabulated below:
(§3) t-Butyl 3-ethyl-7-(2-thienylacetamido)-3-cephem-4-carboxylate (23 mg) was treated with trifluoracetic acid at room temperature for 1 hour. The excess trifluoroacetic acid was distilled off azeotropically with dry benzene to give the free acid (XVII) as a gum (17 mg) .nu.max (CHCl3) 1770, 1705, 1680 cm^^-1 The minimum inhibitory concentrations of this compound required to inhibit the growth of five typical Gram-positive bacteria are tabulated below:
(§4) The cephem ester (XX) (28 mg) was dissolved in trifluoroacetic acid (0.8 ml) and allowed to stand at room temperature for 30 min.

In the next test the test system is β-haemolytic Strep.CN10. Description: minimum inhibitory concentration (MIC) in agar, β-haemolytic Strep.CN10. The method, then: as §1, §2, §3, §4
The next test has as its system B.subtilis. Description: minimum inhibitory concentration (MIC) in agar, B.subtilis. Conditions: Bacillus subtilis. On the procedure: as §1, §2, §3, §4
In another test the test system is Staph.aureus Oxford. In words: minimum inhibitory concentration (MIC) in agar, Staph.aureus Oxford. Conditions: Staphylococcus aureus. On the procedure:
as §1, §2, §3, §4

The subject of another test is Staph.aureus Russell. Description: minimum inhibitory concentration (MIC) in agar, Staph.aureus Russell. The following applies: Staphylococcus aureus. On the procedure: as §1, §2, §3, §4

Turning to `COC(=O)C1=C(Cc2ccccc2)CS[C@@H]2C(NC(=O)COc3ccccc3)C(=O)N12` (stereo partly shown) [II, Methyl 3-benzyl-7-phenoxyacetamido-3-cephem-4-carboxylate], the MIC with Strep.pneumoniae CN33 amounted to 0.98 µg/mL (≈ 2.23 µM); against β-haemolytic Strep.CN10 it was 1.95 µg/mL (≈ 4.45 µM); against B.subtilis, 1.95 µg/mL (≈ 4.45 µM); in the test with Staph.aureus Oxford it was 0.98 µg/mL (≈ 2.23 µM); against Staph.aureus Russell, 15.6 µg/mL (≈ 35.6 µM).

For the compound `N[C@@H](C(=O)NC1C(=O)N2C(C(=O)O)=C(Cc3ccccc3)CS[C@H]12)c1ccccc1` (stereo partly drawn) [VII; R = H, 3-Benzyl-7-[D-α-aminophenylacetamido]-3-cephem-4-carboxylic acid], the MIC with Strep.pneumoniae CN33 was 1 µg/mL (≈ 2.36 µM); with β-haemolytic Strep.CN10, 0.1 µg/mL (≈ 0.236 µM); against B.subtilis, 0.25 µg/mL (≈ 0.59 µM); with Staph.aureus Oxford, 0.1 µg/mL (≈ 0.236 µM); in the test on Staph.aureus Russell, 2.5 µg/mL (≈ 5.9 µM).

As for `O=C(Cc1cccs1)NC1C(=O)N2C(C(=O)O)=C(Cc3ccccc3)CSC12` (stereo not shown) [VI], the MIC was 0.2 µg/mL (≈ 0.482 µM) with Strep.pneumoniae CN33; 0.2 µg/mL (≈ 0.482 µM) against β-haemolytic Strep.CN10; 0.2 µg/mL (≈ 0.482 µM) in the test with B.subtilis; 0.05 µg/mL (≈ 0.121 µM) in the test on Staph.aureus Oxford; 10 µg/mL (≈ 24.1 µM) with Staph.aureus Russell.

Turning to `O=C(Cc1cccs1)NC1C(=O)N2C(C(=O)O)=C(Cc3ccc(F)cc3)CS[C@H]12` (stereo partly shown) [XII, 3-p-fluorobenzyl-7-(2-thienylacetamido)-3-cephem-4-carboxylic acid], the MIC was found to be 0.25 µg/mL (≈ 0.578 µM) in the test on Strep.pneumoniae CN33; 0.25 µg/mL (≈ 0.578 µM) with β-haemolytic Strep.CN10; 0.5 µg/mL (≈ 1.16 µM) in the test on B.subtilis; 0.25 µg/mL (≈ 0.578 µM) against Staph.aureus Oxford; 10 µg/mL (≈ 23.1 µM) against Staph.aureus Russell.

As for `O=C(O)CSCC(=O)NC1C(=O)N2C(C(=O)O)=C(Cc3ccc(F)cc3)CSC12` (stereo not shown) [XIV, 3-p-fluorobenzyl-7-carboxymethylthioacetamido-3-cephem-4-carboxylate], the MIC with Strep.pneumoniae CN33 is 25 µg/mL (≈ 56.8 µM); against β-haemolytic Strep.CN10, 25 µg/mL (≈ 56.8 µM); with B.subtilis, 100 µg/mL (≈ 227 µM); against Staph.aureus Oxford, 5 µg/mL (≈ 11.4 µM); against Staph.aureus Russell it was 50 µg/mL (≈ 114 µM).

With `CCC1=C(C(=O)O)N2C(=O)C(NC(=O)Cc3cccs3)[C@H]2SC1` (stereo partly shown) [XVII, 3-ethyl-7-(2-thienylacetamido)-3-cephem-4-carboxylic acid], the MIC with Strep.pneumoniae CN33, with β-haemolytic Strep.CN10, in the test on B.subtilis, against Staph.aureus Oxford and in the test with Staph.aureus Russell was 2.5 µg/mL (≈ 7.09 µM) each time.

Take `O=C(Cc1cccs1)NC1C(=O)N2C(C(=O)O)=C(CC3CCCCO3)CS[C@H]12` (stereo partly shown) [XXII, 3-(2-tetrahydropyranylmethyl)-7-(2-thienylacetamido)-3-cephem-4-carboxylicacid]: the MIC was found to be 0.25 µg/mL (≈ 0.592 µM) in the test on Strep.pneumoniae CN33; 0.25 µg/mL (≈ 0.592 µM) against β-haemolytic Strep.CN10; 0.5 µg/mL (≈ 1.18 µM) with B.subtilis; 0.25 µg/mL (≈ 0.592 µM) against Staph.aureus Oxford; 10 µg/mL (≈ 23.7 µM) with Staph.aureus Russell.

Turning to `O=C(Cc1cccs1)NC1C(=O)N2C(C(=O)O)=C(CCc3ccccc3)CS[C@H]12` (stereo partly drawn) [XXVI, 3-β-phenylethyl-7-(2-thienylacetamido) -3-cephem-4-carboxylic acid], the MIC against Strep.pneumoniae CN33 was found to be 0.15 µg/mL (≈ 0.35 µM); in the test with β-haemolytic Strep.CN10, 0.02 µg/mL (≈ 0.0467 µM); against B.subtilis it was 0.05 µg/mL (≈ 0.117 µM); in the test on Staph.aureus Oxford, 0.05 µg/mL (≈ 0.117 µM); in the test with Staph.aureus Russell, 1.5 µg/mL (≈ 3.5 µM).

Usually MIC stands for the lowest concentration that inhibits growth of the organism.
